{"source": "patent US20220016197A1", "about": "“ZINGIBER ZERUMBET EXTRACT FOR COMBATING DANDRUFF” (PIERRE FABRE DERMO-COSMETIQUE, priority 2018, published 2022)", "tested_on": "Malassezia furfur CBS1878", "assay": "Anti Malassezia activity: enumeration of residual microorganisms after contact with test product", "type": "cell-based", "settings": "for Enumeration of residual microorganisms after contact: product in mixture A inoculated with 1% inoculum of M. furfur at 10^7 CFU/ml; for log reduction value: versus initial number of microorganisms", "procedure": "Indeed, M. furfur may proliferate anew if it is not completely or sufficiently removed. […] This component is generally measured by estimating the decay of microbial colonies over time.\nFive formulas are tested in this test: • A compound used as reference: zinc pyrithione at 1.0% w/w in a mixture A comprising: sodium laureth sulfate 14.3%, alkyl dimethyl betaine 10.0%, decyl glucoside 3.8%, sorbitan monolaurate 2.0%, citric acid monohydrate 10% solution, qs pH=5; water qs 100; • A Zingiber zerumbet rhizome extract obtained by heptanic extraction from the dry and ground rhizome, at 2.0% w/w in mixture A; • A Zingiber zerumbet rhizome extract obtained by ethanolic extraction, at 2.0% w/w in mixture A; • A Zingiber zerumbet rhizome extract obtained by supercritical CO2 in a water-soluble excipient (butylene glycol) at 3.0% w/w in mixture A. This is a commercial material called Legance®, sold by the firm Sederma. The INCI name of this material is: Butylene glycol-Zingiber Zerumbet Extract.\nAn inoculation of 20 g of test product is carried out with 1% inoculum of Malassezia furfur titrating at 10^7 CFU/ml. After a determined contact time, 1 g of product is taken and a 1/10 dilution is carried out in the neutralizing diluent. Successive dilutions at 1/10 up to 1/1000 dilution are carried out in the diluent. 1 ml is filtered on a 0.45 μm membrane in ester and cellulose acetate in the presence of 50 ml of sterile demineralized water (SDW), then two rinses are carried out with 50 ml of SDW.\nThe chosen contact times are 1 h, 2 h, 5 h and 8 hours. The neutralizing diluent is TSB+10% polysorbate 80, the diluent is tryptone-salt. The rinsing liquid is sterile demineralized water."}
{"substance": "zinc pyrithione [Compound 1]", "values": [{"measurement": "activity on Malassezia furfur (in words)", "value": "shows activity on Malassezia furfur from 1 hour of contact"}, {"measurement": "reduction in the number of microorganisms", "setting": "8 hours of contact", "value": "exceeds 3 log"}, {"measurement": "Enumeration of residual microorganisms after contact", "setting": "contact time 1 hour", "value": "7.2 × 10^4 CFU/g"}, {"measurement": "log reduction value", "setting": "contact time 1 hour", "value": 0.23}, {"measurement": "Enumeration of residual microorganisms after contact", "setting": "contact time 2 hours", "value": "4.8 × 10^4 CFU/g"}, {"measurement": "log reduction value", "setting": "contact time 2 hours", "value": 0.40}, {"measurement": "Enumeration of residual microorganisms after contact", "setting": "contact time 5 hours", "value": "4.9 × 10^3 CFU/g"}, {"measurement": "log reduction value", "setting": "contact time 5 hours", "value": 1.39}, {"measurement": "Enumeration of residual microorganisms after contact", "setting": "contact time 8 hours", "value": "<1.0 × 10^2 CFU/g"}, {"measurement": "log reduction value", "setting": "contact time 8 hours", "value": ">3.08"}]}
